This is an account of results in patent US20220056014A1, “PHENYLPYRROLIDINE COMPOUND AND USE THEREOF” (WUHAN HUMANWELL INNOVATIVE DRUG RESEARCH AND DEVELOPMENT …, priority 2018, published 2022).

One experiment deals with T1, PDE4B (Homo sapiens, UniProt Q07343).
T1 construct: purchased Enzo Life Sciences BML-SE522-0020
Put plainly: PDE4B enzyme activity assay (PDE-Glo Phosphodiesterase Assay Kit). It counts as biochemical. Particulars: for IC50 (PDE4D)/IC50 (PDE4B): selectivity ratio. On the procedure: (§1) For the previously synthesized compounds, the inhibitory activity of the compounds against PDE4B and against PDE4D was tested by using PDE-Glo Phosphodiesterase Assay Kit (promega, V1361). In short, in accordance with the instructions of the kit, a concentrated stock solution (10 mM) the compound to be tested was first prepared with DMSO solvent, and the concentrated stock solution was then diluted into 10× working solutions with a Reaction buffer provided in the kit. With the Reaction buffer, on ice, PDE4B enzyme (Enzo Life Sciences, BML-SE522-0020) was diluted to a concentration of 1 ng/μl to obtain a PDE4B enzyme working solution, and PDE4D enzyme (Enzo Life Sciences, BML-SE523-0020) was diluted to a concentration of 4 ng/μl to obtain a PDE4D enzyme working solution. 1.5 μl of the PDE4B working solution (or PDE4D working solution) and 1 μl of the compound working solution were added to wells of 384-well plate (Corning, CLS3707), and incubated with shaking at room temperature for 5 min, followed by adding 2.5 μl of cAMP (in Reaction buffer, 2 μM) per well, incubating with shaking at room temperature for 20 min. 2.5 μl/well of 1× Termination Buffer, and then 2.5 μl/well of 1× Detection Buffer were added, and further incubated with shaking at room temperature for 20 min. 10 μl/well of 1× Kinase-Glo was added, and the plate was incubated with shaking at room temperature for 10 min, and bioluminescence was measured with PheraStar instrument. The experimental results were plotted with GraphPad Prism software, and fitted to calculate IC50 of each compound.

For experiment [1], the system named is LPS-induced secretion of TNFα in human PBMCs. In words: LPS-induced secretion of TNFα in human PBMCs. It counts as cell-based. To be noted: Homo sapiens, PBMC, 24 h, LPS 10 ng/ml. On the procedure:
Extraction process of peripheral blood mononuclear cells (PBMCs): one unit of human peripheral blood concentrate (concentrated from 200 cc peripheral blood) was sucked and added with 0.9% saline until a total volume reached 120 ml, and mixed homogenously. 15 ml Lymphoprep™ was added into 50 ml centrifuge tube, and then 30 ml of diluted blood concentrate was carefully and slowly added thereto, allowing the diluted blood to be stacked on the layered solution and preventing the diluted blood from being mixed into the separated solutions or breaking the surface of the separated solution, wherein a ratio of Lymphoprep™ to the diluted blood was 1:2. The centrifuge tubes were balanced and placed in a horizontal centrifuge (eppendorf, 5810R), and centrifuged at 800 g and 20° C. for 20 min. The centrifuge tubes were carefully taken out. PBMCs were absorbed by directly inserting the Pasteur pipette deep into the buffy coat. The obtained PBMCs were gently pipetted with 3 times the volume of 0.9% normal saline or PBS (without calcium or magnesium ions) to mix homogenously. After that, the cells were centrifuged at 250 g and 20° C. for 10 min, the supernatant was removed to remove the platelets remaining in the cell suspension. The obtained cell pellet was resuspended in 20 ml of PBS, and counted using trypan blue.
Compound screening by using PBMCs: the PBMC suspension obtained above was centrifuged to remove PBS, then resuspended in complete medium (RPMI1640+10% FBS+1% P/S) and counted. 100 μL/well of the cells was seeded at 5×10^4/well. Each of the compounds to be screened was prepared as 4 times the final concentration, which was added to the cells at 50 μL/well. The compound was pre-incubated for 30 min in advance of being added to the cells. Meanwhile, control wells to which the compound was not added were provided. A final stimulation concentration of LPS was 10 ng/ml, and LPS was formulated as 4 times the final stimulation concentration, and added to the cells at 50 μL/well. Meanwhile, control wells, i.e., wells without LPS were provided. The cells were incubated for 24 h, and 10% of the supernatant was collected for detection. The obtained supernatant was detected using Invitrogen's Human TNF-α kit (REF: 88-7346-88).

In another experiment the target is T2, PDE4D (Homo sapiens, UniProt Q08499).
T2 construct: purchased Enzo Life Sciences BML-SE523-0020
Put plainly: PDE4D enzyme activity assay (PDE-Glo Phosphodiesterase Assay Kit). It counts as biochemical. Here is the method:
as §1

The test system of experiment [2] is LPS-stimulated TNF-α release. Put plainly: LPS-stimulated TNF-α release in mice. The format is in vivo, Balb/c mice. Particulars: Mus musculus, oral 50 mg/kg (positive control 100 mg/kg), 1 mg/kg LPS i.p. Here is the method: 18 Balb/c mice (6 to 8 weeks) were randomly assigned to a blank group, a model group, and an administration group, 6 mice in each group. A vehicle (blank group, model group) or 50 mg/kg compound (administration group, where the dose for the positive control group was 100 mg/kg) was orally administrated. 30 min after the oral administration, PBS (blank group) or 1 mg/kg LPS (model group and administration group) was injected intraperitoneally. 90 min or 120 min after the intraperitoneal injection, blood was collected from the hearts of the mice, and still stood at 2-8° C. for 4 hours, and centrifuged at 5000 rpm for 10 min to collect the serum. The serum was stored at −80° C. for testing.
The serum TNF-α level was tested using a mouse TNF-α detection kit (Mouse TNFa ELISA kit: Biolegend, Cat: 430904). The inhibitory activity of the compounds against the TNF-α release was calculated based on the serum TNF-α level.
Inhibitory activity of compound %={1−(TNFα concentration of administration group−TNFα concentration of blank group)/(TNFα concentration of model group−TNFα concentration of blank group)}×100%.

The mark [3] stands for this setting: 2 h, blood 120 min after LPS, read-out: Inhibition rate (%) of LPS-stimulated TNF-α release, 120 min.
[4] abbreviates: 1.5 h, blood 90 min after LPS, read-out: Inhibition rate (%) of LPS-stimulated TNF-α release, 90 min.

Read-outs that look alike come from different tables or passages of the source.

T2 sequence (Q08499 whole entry): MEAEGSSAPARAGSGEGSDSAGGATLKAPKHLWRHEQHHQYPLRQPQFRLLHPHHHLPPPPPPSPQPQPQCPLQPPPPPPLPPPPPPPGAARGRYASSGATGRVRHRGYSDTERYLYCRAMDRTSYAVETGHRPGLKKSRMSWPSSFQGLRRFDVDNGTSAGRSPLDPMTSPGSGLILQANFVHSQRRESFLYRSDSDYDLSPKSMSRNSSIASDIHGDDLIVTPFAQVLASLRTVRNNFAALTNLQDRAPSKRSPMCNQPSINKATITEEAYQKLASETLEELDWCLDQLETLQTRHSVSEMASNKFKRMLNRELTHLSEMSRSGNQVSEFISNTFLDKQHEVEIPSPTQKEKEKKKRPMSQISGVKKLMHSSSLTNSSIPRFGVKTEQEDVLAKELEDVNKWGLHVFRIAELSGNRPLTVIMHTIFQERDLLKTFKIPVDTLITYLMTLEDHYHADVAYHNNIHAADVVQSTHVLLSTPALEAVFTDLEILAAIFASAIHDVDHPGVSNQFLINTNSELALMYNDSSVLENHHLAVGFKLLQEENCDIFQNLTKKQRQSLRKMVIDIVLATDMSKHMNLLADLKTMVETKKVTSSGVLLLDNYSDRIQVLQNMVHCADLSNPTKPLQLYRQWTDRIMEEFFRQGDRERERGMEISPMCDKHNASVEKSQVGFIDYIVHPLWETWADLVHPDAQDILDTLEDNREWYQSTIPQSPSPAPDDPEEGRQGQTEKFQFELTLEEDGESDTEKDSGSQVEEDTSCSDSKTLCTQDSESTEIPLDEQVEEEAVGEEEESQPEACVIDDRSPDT
T1 sequence (Q07343 whole entry): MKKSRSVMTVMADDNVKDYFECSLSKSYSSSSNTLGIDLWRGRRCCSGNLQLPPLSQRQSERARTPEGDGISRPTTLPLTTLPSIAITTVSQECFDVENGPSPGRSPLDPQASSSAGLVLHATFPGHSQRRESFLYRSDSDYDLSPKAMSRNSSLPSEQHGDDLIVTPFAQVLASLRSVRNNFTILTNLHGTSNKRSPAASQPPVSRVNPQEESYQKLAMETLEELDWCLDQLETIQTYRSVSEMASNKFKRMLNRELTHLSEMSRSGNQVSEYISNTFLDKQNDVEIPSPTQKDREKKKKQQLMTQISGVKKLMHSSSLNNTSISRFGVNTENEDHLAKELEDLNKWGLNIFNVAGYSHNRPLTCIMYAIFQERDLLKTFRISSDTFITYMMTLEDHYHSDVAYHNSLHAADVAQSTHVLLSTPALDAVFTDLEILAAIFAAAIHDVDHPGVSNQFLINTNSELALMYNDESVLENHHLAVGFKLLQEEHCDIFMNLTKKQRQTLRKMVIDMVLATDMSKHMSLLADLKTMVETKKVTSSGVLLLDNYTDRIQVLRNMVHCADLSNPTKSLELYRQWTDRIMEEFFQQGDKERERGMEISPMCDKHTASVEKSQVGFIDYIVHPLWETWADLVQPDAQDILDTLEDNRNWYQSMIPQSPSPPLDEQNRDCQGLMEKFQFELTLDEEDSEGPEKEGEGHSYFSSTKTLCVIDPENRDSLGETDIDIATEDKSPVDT

As a reminder, the IC50 is the concentration at which inhibition is half-maximal. Low values mean inhibition by little substance, high ones a need for much substance. Regarding `COc1ccc([C@@H]2CN(C(=O)[C@@H](O)CO)C[C@@]2(C)[C@@H](C)O)cc1OC1CN(c2ccc(C)c(C#N)n2)C1` [Compound 003, 6-(3-(5-((3S,4S)-1-((S)-2,3-dihydroxypropanoyl)-4-((R)-1-hydroxyethyl)-4-methylpyrrolidin-3-yl)-2-methoxyphenoxy)azetidin-1-yl)-3-methylpicolinonitrile], the IC50 is 0.41 nM against PDE4B, 1.48 nM in experiment [1] and 0.39 nM at PDE4D. Also, the “IC50 (PDE4D)/IC50 (PDE4B)” value at PDE4B came out at 0.95.
`COc1ccc([C@@H]2CN(C(=O)[C@@H](O)CO)C[C@@]2(C)[C@@H](C)O)cc1OC1CN(c2ncc(C)cc2C#N)C1` [Compound 006, 2-(3-(5-((3S,4S)-1-((S)-2,3-dihydroxypropanoyl)-4-((R)-1-hydroxyethyl)-4-methylpyrrolidin-3-yl)-2-methoxyphenoxy)azetidin-1-yl)-5-methylnicotinonitrile]: the IC50 on PDE4B is 1.37 nM; in experiment [1] it was 2.52 nM; at PDE4D, 1.34 nM. The “IC50 (PDE4D)/IC50 (PDE4B)” value on PDE4B came to 0.98.
Turning to `COc1ccc([C@@H]2CN(C(=O)[C@@H](O)CO)C[C@@]2(C)[C@@H](C)O)cc1OC1CN(c2ncc(Cl)cc2F)C1` [Compound 009, (S)-1-((3S,4S)-4-(3-((1-(5-chloro-3-fluoropyridin-2-yl)azetidin-3-yl)oxy)-4-methoxyphenyl)-3-((R)-1-hydroxyethyl)-3-methylpyrrolidin-1-yl)-2,3-dihydroxypropan-1-one], the inhibition in vivo at 50 mg/kg in experiment [2] (setting [3]) is 47.6%. For the same compound, the results for the IC50 (against PDE4B; in experiment [1]; against PDE4D) were 0.78 nM, 7.57 nM and 4.67 nM, respectively. Further, at PDE4B, the “IC50 (PDE4D)/IC50 (PDE4B)” value turned out to be 5.99.
For `COc1ccc([C@@H]2CN(C(=O)[C@@H](O)CO)C[C@@]2(C)[C@@H](C)O)cc1OC1CN(c2cc(C)c(C#N)cn2)C1` [Compound 012, 6-(3-(5-((3S,4S)-1-((S)-2,3-dihydroxypropanoyl)-4-((R)-1-hydroxyethyl)-4-methylpyrrolidin-3-yl)-2-methoxyphenoxy)azetidin-1-yl)-4-methylnicotinonitrile], the IC50 worked out at 2.09 nM at PDE4B, 2.52 nM in experiment [1] and 0.56 nM against PDE4D. Besides, the “IC50 (PDE4D)/IC50 (PDE4B)” value on PDE4B stood at 0.27.
For the compound `COc1ccc([C@@H]2CN(C(=O)[C@@H](O)CO)C[C@@]2(C)[C@@H](C)O)cc1OC1CN(c2ncc(F)cc2Cl)C1` [Compound 014, (S)-1-((3S,4S)-4-(3-((1-(3-chloro-5-fluoropyridin-2-yl)azetidin-3-yl)oxy)-4-methoxyphenyl)-3-((R)-1-hydroxyethyl)-3-methylpyrrolidin-1-yl)-2,3-dihydroxypropan-1-one], the IC50 at PDE4B came to 6.65 nM; in experiment [1], 15.1 nM; at PDE4D it was 6.02 nM. Moreover, the “IC50 (PDE4D)/IC50 (PDE4B)” value on PDE4B was determined as 0.91.
As to `COc1ccc(N2CC(Oc3cc([C@@H]4CN(C(=O)[C@@H](O)CO)C[C@@]4(C)[C@@H](C)O)ccc3OC)C2)nc1` [Compound 015, (S)-2,3-dihydroxy-1-((3S,4S)-3-((R)-1-hydroxyethyl)-4-(4-methoxy-3-((1-(5-methoxypyridin-2-yl)azetidin-3-yl)oxy)phenyl)-3-methylpyrrolidin-1-yl)propan-1-one], the results for the IC50 (at PDE4B; in experiment [1]; at PDE4D) were 0.68 nM, 3.34 nM and 0.87 nM, respectively. For the same compound, on PDE4B, the “IC50 (PDE4D)/IC50 (PDE4B)” value came out at 1.28.
The like results for `COc1ccc([C@@H]2CN(C(=O)[C@@H](O)CO)C[C@@]2(C)[C@@H](C)O)cc1OC1CN(c2ncc(C)cc2C)C1` [Compound 021, (S)-1-((3S,4S)-4-(3-((1-(3,5-dimethylpyridin-2-yl)azetidin-3-yl)oxy)-4-methoxyphenyl)-3-((R)-1-hydroxyethyl)-3-methylpyrrolidin-1-yl)-2,3-dihydroxypropan-1-one] were, in that order, 4.15 nM, 14.1 nM, 14.9 nM and 3.59.
For the compound `COc1ccc([C@@H]2CN(C(=O)[C@@H](O)CO)C[C@@]2(C)[C@@H](C)O)cc1OC1CN(c2cc(C)c(F)cn2)C1` [Compound 025, (S)-1-((3S,4S)-4-(3-((1-(5-fluoro-4-methylpyridin-2-yl)azetidin-3-yl)oxy)-4-methoxyphenyl)-3-((R)-1-hydroxyethyl)-3-methylpyrrolidin-1-yl)-2,3-dihydroxypropan-1-one], the IC50 against PDE4B was determined as 0.88 nM; in experiment [1], 3.26 nM; on PDE4D, 2.16 nM. Moreover, at PDE4B, the “IC50 (PDE4D)/IC50 (PDE4B)” value worked out at 2.45.
On to `COc1ccc([C@@H]2CN(C(=O)[C@@H](O)CO)C[C@@]2(C)[C@@H](C)O)cc1OC1CN(c2ccc(OC(C)C)cn2)C1` [Compound 028, (S)-2,3-dihydroxy-1-((3S,4S)-3-((R)-1-hydroxyethyl)-4-(3-((1-(5-isopropoxypyridin-2-yl)azetidin-3-yl)oxy)-4-methoxyphenyl)-3-methylpyrrolidin-1-yl)propan-1-one], for which the values for the IC50 (at PDE4B; in experiment [1]; on PDE4D) were 2.22 nM, 2.94 nM and 3.08 nM, respectively. In addition, on PDE4B, the “IC50 (PDE4D)/IC50 (PDE4B)” value was found to be 1.39.
Take `COc1ccc([C@@H]2CN(C(=O)[C@@H](O)CO)C[C@@]2(C)[C@@H](C)O)cc1OC1CN(c2ccc(C(C)C)cn2)C1` [Compound 032, (S)-2,3-dihydroxy-1-((3S,4S)-3-((R)-1-hydroxyethyl)-4-(3-((1-(5-isopropylpyridin-2-yl)azetidin-3-yl)oxy)-4-methoxyphenyl)-3-methylpyrrolidin-1-yl)propan-1-one]: the inhibition in vivo at 50 mg/kg came to 75.8% in experiment [2] (setting [4]) and 84% in experiment [2] (setting [3]). The IC50 against PDE4B is 0.33 nM; in experiment [1], 0.26 nM; on PDE4D, 3.25 nM. The “IC50 (PDE4D)/IC50 (PDE4B)” value on PDE4B is given as 9.85.
With `COc1ccc([C@@H]2CN(C(=O)[C@@H](O)CO)C[C@@]2(C)[C@@H](C)O)cc1OC1CN(c2ccc(CC(F)(F)F)cn2)C1` [Compound 033, (S)-2,3-dihydroxy-1-((3S,4S)-3-((R)-1-hydroxyethyl)-4-(4-methoxy-3-((1-(5-(2,2,2-trifluoroethyl)pyridin-2-yl)azetidin-3-yl)oxy)phenyl)-3-methylpyrrolidin-1-yl)propan-1-one], the results for the inhibition in vivo at 50 mg/kg in experiment [2] (setting [4]) and in experiment [2] (setting [3]) were 70.3% and 75.9%, respectively. Moreover, the IC50 is 0.22 nM on PDE4B, 0.53 nM in experiment [1] and 2.81 nM on PDE4D. The “IC50 (PDE4D)/IC50 (PDE4B)” value at PDE4B worked out at 12.8.
